Here are results for eleven compounds from patent US10683297B2 (Sunshine Lake Pharma Co., Ltd., priority 2017, dated 2020).

Data set [1] is described as follows: Compound stability in human liver microsomes. The format is in vitro ADME. Conditions: for half-life at 5 μM: human liver microsomes 0.5 mg protein/mL, compound 5 μM, NADPH 1.0 mM, pH 7.4, 37° C., read-out: Human T1/2; for CLint scaled at 5 μM: liver microsomes, pH 7.4, in vivo CLint extrapolated from human liver microsome incubation. The method, then: (§1) The LC/MS/MS system used in the analysis consists of an Agilent 1200 Series vacuum degasser, binary pump, well-plate autosampler, thermostatted column compartment, the Agilent G6430 Triple Quadrupole Mass Spectrometer with an electrosprayionization (ESI) source. Quantitative analysis was carried out using MRM mode. The parameters for MRM transitions are in the Table A.
(§2) An Agilent XDB-C18, 2.1×30 mm, 3.5 μM column was used for the analysis. 5 μL of the samples were injected. Analysis condition: The mobile phase was 0.1% formic acid in water (A) and 0.1% formic acid in methanol (B). The flow rate was 0.4 mL/min. And the gradient of Mobile phase was in the Table B.
(§3) Alternatively, an Agilent 6330 series LC/MS/MS spectrometer equipped with G1312A binary pumps, a G1367A autosampler and a G1314C UV detector were used in the analysis. An ESI source was used on the LC/MS/MS spectrometer. The analysis was done in positive ion mode as appropriate and the MRM transition for each analyte was optimized using standard solution. A Capcell MP-C18 100×4.6 mm I.D., 5 uM column (Phenomenex, Torrance, Calif., USA) was used during the analysis. The mobile phase was 5 mM ammonia acetate, 0.1% MeOH in water (A): 5 mM ammonia acetate, 0.1% MeOH in acetonitrile (B) (70/30, v/v). The flow rate was 0.6 mL/min. Column was maintained at ambient temperature. 20 μL of the samples were injected.
(§4) Human or rat liver microsomes incubations were conducted in duplicate in polypropylene tubes. The typical incubation mixtures consisted of human or rat liver microsomes (0.5 mg protein/mL), compounds of interest (5 μM) and NADPH (1.0 mM) in a total volume of 200 μL potassium phosphate buffer (PBS, 100 mM, pH 7.4). Compounds were dissolved in DMSO and diluted with PBS such that the final concentration of DMSO was 0.05%. The enzymatic reactions were commenced with the addition of […] after a 3-min preincubation and incubated in a water bath open to the air at 37° C. Reactions were terminated at various time points (0, 5, 10, 15, 30, 60 min) by adding equal volume of ice-cold acetonitrile. The samples were stored at […] until LC/MS/MS assays.
(§5) The concentrations of compounds in the incubation mixtures of human or rat liver microsomes were determined by a LC/MS/MS method. The ranges of the linearity in the concentration range were determined for each tested compounds.
(§6) A parallel incubation was performed using denatured microsomes as the negative control, and reactions were terminated at various time points (0, 15, 60 min) after incubation at 37° C.
(§7) Dextromethorphan (70 μM) was selected as the positive control, and reactions were terminated at various time points (0, 5, 10, 15, 30, 60 min) after incubation at 37° C. Both positive and negative control samples were included in each assay to ensure the integrity of the microsomal incubation system.
(§8) The concentrations of compounds in human or rat liver microsome incubations were plotted as a percentage of the relevant zero time point control for each reaction. The in vivo CLint were extrapolated (ref.: Naritomi, Y.; Terashita, S.; Kimura, S.; Suzuki, A.; Kagayama, A.; and Sugiyama, Y.; Prediction of human hepatic clearance from in vivo animal experiments and in vitro metabolic studies with liver microsomes from animals and humans. Drug Metab. Dispos., 2001, 29: 1316-1324).

Data set [2] in a line: Compound stability in rat liver microsomes. The format is in vitro ADME. The following applies: for CLint scaled at 5 μM: liver microsomes, pH 7.4, in vivo CLint extrapolated from rat liver microsome incubation; for half-life at 5 μM: rat liver microsomes 0.5 mg protein/mL, compound 5 μM, NADPH 1.0 mM, pH 7.4, 37° C., read-out: Rat T1/2. The procedure:
as §1, §2, §3, §4, §5, §6, §7, §8

Data set [3] has as its target T1, JAK1 (h) (Homo sapiens, UniProt P23458).
T1 construct: purchased Millipore UK Ltd (assays performed there as a service)
Put plainly: JAK1 (h) kinase assay. The following applies: [γ-33P-ATP] 10 μM or KM values; 40 minutes at room temperature. It counts as biochemical. The procedure: The above assay procedure can be used to determine the IC50 for inhibition and/or the inhibition constant, Ki. […] The IC50 value is estimated by preparing a 10 point curve using a ½ log dilution series (for example, a typical curve may be prepared using the following compound concentrations: 3 μM, 1 μM, 0.3 μM, 0.1 μM, 0.03 μM, 0.01 μM, 0.003 μM, 0.001 μM, 0.0003 μM and 0 μM).
JAK1 (h) is incubated with 20 mM Tris/HCl pH 7.5, 0.2 mM EDTA, 500 μM […], 10 mM MgAcetate and [γ-^33P-ATP] […] The reaction is initiated by the addition of the MgATP mix. After incubation for 40 minutes at room temperature, the reaction is stopped by the addition of 3% phosphoric acid solution. 10 μL of the reaction is then spotted onto a P30 filtermat and washed three times for 5 minutes in 75 mM phosphoric acid and once in methanol prior to drying and scintillation counting.
The kinase assays described herein were performed at Millipore UK Ltd, Dundee Technology Park, Dundee DD2 1SW, UK.

Data set [4] is described as follows: Pharmacokinetics after intravenous and oral administration in rats. It counts as in vivo. The procedure: as §1, §2, §3
The compounds disclosed herein are assessed in pharmacokinetic studies in mice, rats, dogs or monkeys. The compounds are administered as a water solution, 2% HPMC+1% TWEEN®80 in water solution, 5% DMSO+5% solutol in saline, 4% MC suspension or capsule. For the intravenous administration, the animals are generally given at about 0.5, 0.6, 1 or 2 mg/kg dose. For the oral (p.o.) dosing, mice and rats are generally given 5 or 10 mg/kg dose, and dogs and monkeys are generally given 10 mg/kg dose. The blood samples (0.3 mL) are drawn at 0.25, 0.5, 1.0, 2.0, 3.0, 4.0, 6.0, 8.0, 12 and 24 h time points or 0.083, 0.25, 0.5, 1.0, 2.0, 4.0, 6.0, 8.0 and 24 h time points and centrifuged at 3,000 or 4000 rpm for 2 to 10 min. The plasma solutions are collected, and stored at […] until analyzed by LC/MS/MS as described above.

The mark [5] stands for this setting: rat, plasma, iv dosing, dose 1 mg/kg (Ex. 9: 0.6, Ex. 18: 0.5, Ex. 50: 0.96 mg/kg).

T1 sequence (P23458 whole entry): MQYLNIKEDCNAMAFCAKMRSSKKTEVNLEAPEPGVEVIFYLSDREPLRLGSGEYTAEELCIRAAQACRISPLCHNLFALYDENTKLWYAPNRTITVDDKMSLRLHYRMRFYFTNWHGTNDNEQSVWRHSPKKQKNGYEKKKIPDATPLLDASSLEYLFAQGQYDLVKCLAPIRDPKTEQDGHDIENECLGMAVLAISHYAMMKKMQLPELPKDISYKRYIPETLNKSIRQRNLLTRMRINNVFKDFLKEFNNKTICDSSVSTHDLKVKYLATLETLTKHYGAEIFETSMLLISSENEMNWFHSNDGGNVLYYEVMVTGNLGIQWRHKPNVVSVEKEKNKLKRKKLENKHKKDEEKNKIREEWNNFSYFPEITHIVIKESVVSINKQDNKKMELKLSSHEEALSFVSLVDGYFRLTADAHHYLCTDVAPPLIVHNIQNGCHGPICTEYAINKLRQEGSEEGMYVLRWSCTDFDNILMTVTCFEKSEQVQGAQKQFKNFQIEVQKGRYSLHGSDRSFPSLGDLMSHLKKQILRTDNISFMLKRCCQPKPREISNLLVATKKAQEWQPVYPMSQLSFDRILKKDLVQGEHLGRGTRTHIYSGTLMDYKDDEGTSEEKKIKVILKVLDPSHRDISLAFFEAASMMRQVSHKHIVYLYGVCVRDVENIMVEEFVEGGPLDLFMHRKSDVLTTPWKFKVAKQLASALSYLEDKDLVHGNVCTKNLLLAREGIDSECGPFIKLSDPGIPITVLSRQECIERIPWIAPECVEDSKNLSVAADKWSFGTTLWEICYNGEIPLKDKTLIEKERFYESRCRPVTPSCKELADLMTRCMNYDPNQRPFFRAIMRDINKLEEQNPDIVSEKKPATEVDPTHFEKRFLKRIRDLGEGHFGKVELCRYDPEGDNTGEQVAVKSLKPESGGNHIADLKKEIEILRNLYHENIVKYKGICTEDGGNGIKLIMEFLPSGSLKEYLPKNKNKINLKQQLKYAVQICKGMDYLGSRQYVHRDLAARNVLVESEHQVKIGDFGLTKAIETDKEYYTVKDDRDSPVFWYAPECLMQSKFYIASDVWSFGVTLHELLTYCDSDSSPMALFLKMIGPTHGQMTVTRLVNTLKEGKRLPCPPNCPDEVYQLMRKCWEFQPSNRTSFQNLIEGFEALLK

In general, CLint scaled refers to the capacity of the preparation to metabolise the compound, expressed as a volume cleared per time. Usually IC50 stands for the point on the concentration scale where inhibition reaches its midpoint. The low end stands for greater potency in that assay, the high end for weaker potency in that assay. On to `Cc1cnc2ccc(Nc3ncc(Cl)c(NC4CCN(c5ccc(C#N)nn5)CC4)n3)cn12` [Example 13, 6-(4-((5-chloro-2-((3-methylimidazo[1,2-a]pyridin-6-yl)amino)pyrimidin-4-yl)amino)piperidin-1-yl)pyridazine-3-carbonitrile], for which the half-life at 5 μM in data set [1] turned out to be 21.8 min; in data set [2] it was 107 min. Besides, the CLint scaled at 5 μM in data set [1] is 79.8 mL/min/kg; in data set [2], 23.3 mL/min/kg. This compound also had a concentration for half-maximal inhibition (IC50) in data set [3] of 0.5 nM.
On the same counts, the results for `N#Cc1ccc(N2CCC(Nc3nc(Nc4ccn5c(C6CC6)cnc5c4)ncc3Cl)CC2)nn1` [Example 14, 6-(4-((5-chloro-2-((3-cyclopropylimidazo[1,2-a]pyridin-7-yl)amino)pyrimidin-4-yl)amino)piperidin-1-yl)pyridazine-3-carbonitrile] are 26.1 min, 10.7 min, 66.7 mL/min/kg, 232 mL/min/kg and 3 nM.
`Cc1nc2cc(Nc3ncc(Cl)c(NC4CCN(c5ccc(C#N)nn5)CC4)n3)ccn2c1C` [Example 16, 6-(4-((5-chloro-2-((2,3-dimethylimidazo[1,2-a]pyridin-7-yl)amino)pyrimidin-4-yl)amino)piperidin-1-yl)pyridazine-3-carbonitrile] registered an IC50 in data set [3] of 0.3 nM. That is a sub-nanomolar value.
Turning to `Cc1nnc2cc(Nc3ncc(Cl)c(NC4CCN(c5ccc(C#N)nn5)CC4)n3)ccn12` [Example 20, 6-(4-((5-chloro-2-((3-methyl-[1,2,4]triazolo[4,3-a]pyridin-7-yl)amino)pyrimidin-4-yl)amino)piperidin-1-yl)pyridazine-3-carbonitrile], in data set [1], the half-life at 5 μM was found to be 153 min and the CLint scaled at 5 μM is 11.3 mL/min/kg. For the same compound, in data set [2], the intrinsic metabolic clearance (CLint scaled) at 5 μM is 30 mL/min/kg and the half-life at 5 μM amounted to 82.7 min. Further, in data set [3], it took 0.5 nM to reach half-maximal inhibition (IC50).
In general, AUC(0-t) refers to the area under the concentration-time curve up to a stated or last time point. Lower therefore signals less exposure. What is called bioavailability is dose-corrected exposure relative to a reference, in per cent. `Cc1cnc2cc(Nc3ncc(Cl)c(NC4CCN(c5ccc(C#N)cn5)CC4)n3)cnn12` [Example 21, 6-(4-((5-chloro-2-((3-methylimidazo[1,2-b]pyridazin-7-yl)amino)pyrimidin-4-yl)amino)piperidin-1-yl)nicotinonitrile]: the “Clearance (CL) after iv dosing” value in data set [4] (iv dosing, dose 1 mg/kg (Ex. 9: 0.6, Ex. 18: 0.5, Ex. 50: 0.96 mg/kg)) was 11.8 mL/min/kg. In data set [4] (setting [5]), this compound had an AUC(0-t) of 1420 ng·h/mL and a half-life of 43.2 min. Further, in data set [4] (rat, plasma, iv dosing, dose 1 mg/kg (Ex. 9: 0.6, Ex. 18: 0.5, Ex. 50: 0.96 mg/kg), read-out: Vss), the Vd came out at 0.84 L/kg. In addition, the bioavailability in data set [4] (rat, plasma, oral (generally 5 or 10 mg/kg) versus iv dosing, read-out: F (oral bioavailability)) was 37%. Also, the IC50 in data set [3] is less than 0.3 nM.
Take `Cc1nnc2cc(Nc3ncc(Cl)c(NC4CCN(c5ccc(C#N)cn5)CC4)n3)cnn12` [Example 25, 6-(4-((5-chloro-2-((3-methyl-[1,2,4]triazolo[4,3-b]pyridazin-7-yl)amino)pyrimidin-4-yl)amino)piperidin-1-yl)nicotinonitrile]: in data set [1], the half-life at 5 μM is 61 min and the intrinsic metabolic clearance (CLint scaled) at 5 μM is 28.5 mL/min/kg. Further, in data set [2], the CLint scaled at 5 μM was 54.9 mL/min/kg and the half-life at 5 μM came to 45.2 min. Also, the IC50 in data set [3] was 3 nM.
On to `CC(O)c1cnc2cc(Nc3ncc(Cl)c(NC4CCN(c5ccc(C#N)cn5)CC4)n3)ccn12` (centres unmarked) [Example 43, 6-(4-((5-chloro-2-((3-(1-hydroxyethyl)imidazo[1,2-a]pyridin-7-yl)amino)pyrimidin-4-yl)amino)piperidin-1-yl)nicotinonitrile], for which, in data set [1], the half-life at 5 μM is 23.5 min and the CLint scaled at 5 μM was 74.1 mL/min/kg. Also, in data set [2], the CLint scaled at 5 μM is 57.5 mL/min/kg and the half-life at 5 μM is 43.2 min. Further, the IC50 in data set [3] was less than 0.3 nM.
On the same counts, the results for `CC(C)(F)c1nc2cc(Nc3ncc(Cl)c(NC4CCN(c5ccc(C#N)cn5)CC4)n3)ccn2n1` [Example 59, 6-(4-((5-chloro-2-((2-(2-fluoropropan-2-yl)-[1,2,4]triazolo[1,5-a]pyridin-7-yl)amino)pyrimidin-4-yl)amino)piperidin-1-yl)nicotinonitrile] are 69.3 min, 25.1 mL/min/kg, 86.8 mL/min/kg, 28.6 min and 0.7 nM.
In data set [3], `N#Cc1ccc(N2CCC(Nc3nc(Nc4ccc5c(c4)ncn5CC4CC4)ncc3Cl)CC2)nn1` [Example 63, 6-(4-((5-chloro-2-((1-(cyclopropylmethyl)-1H-benzo[d]imidazol-5-yl)amino)pyrimidin-4-yl)amino)piperidin-1-yl)pyridazine-3-carbonitrile] gave an IC50 of 0.4 nM.
Take `CC(C)(O)Cn1cnc2cc(Nc3ncc(Cl)c(NC4CCN(c5ccc(C#N)cn5)CC4)n3)ccc21` [Example 64, 6-(4-((5-chloro-2-((1-(2-hydroxy-2-methylpropyl)-1H-benzo[d]imidazol-5-yl)amino)pyrimidin-4-yl)amino)piperidin-1-yl)nicotinonitrile]: in data set [1], the half-life at 5 μM came out at 40.3 min and the CLint scaled at 5 μM is 43.2 mL/min/kg. Moreover, in data set [2], the intrinsic clearance (CLint scaled) at 5 μM is 249 mL/min/kg and the half-life at 5 μM came out at 10 min. The IC50 in data set [3] is 0.5 nM.
The compound `CC(C)(O)c1nc2cc(Nc3ncc(Cl)c(NC4CCN(c5ccc(C#N)cn5)CC4F)n3)ccn2n1` (centres unmarked) [Example 89, 6-(4-((5-chloro-2-((2-(2-hydroxypropan-2-yl)-[1,2,4]triazolo[1,5-a]pyridin-7-yl)amino)pyrimidin-4-yl)amino)-3-fluoropiperidin-1-yl)nicotinonitrile] gave an IC50 in data set [3] of 2 nM. In other words, the single-digit nanomolar range.
